Test results from PMC9073274, “The toxic effects of alizarin red S on catalase at the molecular level” (RSC Advances, 2019).

Columns and labels:
[1] = molecular target: T1, CAT (catalase from bovine liver) (Bos taurus, UniProt P00432); assay: H2O2 decomposition, absorbance at […] nm; assay type: biochemical
T1 construct: native commercial enzyme from bovine liver (Beijing Solarbio); heme homotetramer, 506 residues per subunit
T1 sequence (P00432 2-527): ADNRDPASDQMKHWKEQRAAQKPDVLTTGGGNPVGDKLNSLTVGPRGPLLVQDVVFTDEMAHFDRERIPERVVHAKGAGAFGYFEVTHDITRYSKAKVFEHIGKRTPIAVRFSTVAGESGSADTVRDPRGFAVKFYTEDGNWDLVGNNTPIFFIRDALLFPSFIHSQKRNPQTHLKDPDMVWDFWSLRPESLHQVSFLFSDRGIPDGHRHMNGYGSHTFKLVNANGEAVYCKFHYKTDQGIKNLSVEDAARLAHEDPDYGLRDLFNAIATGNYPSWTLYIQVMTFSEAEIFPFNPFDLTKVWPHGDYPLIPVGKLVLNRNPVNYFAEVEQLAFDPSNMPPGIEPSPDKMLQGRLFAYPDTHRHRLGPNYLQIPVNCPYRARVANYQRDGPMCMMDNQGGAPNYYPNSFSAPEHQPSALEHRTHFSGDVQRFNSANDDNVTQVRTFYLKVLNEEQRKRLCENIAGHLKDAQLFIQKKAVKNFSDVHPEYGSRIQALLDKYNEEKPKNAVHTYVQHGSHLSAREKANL

[2] = molecular target: T1, CAT (catalase from bovine liver); assay: isothermal titration calorimetry, one-site model; assay type: binding; details: read-out: K (M^-1)
Text: isothermal titration calorimetry, one-site model on CAT (catalase from bovine liver)

- inhibition at 5 µM [1]: 23.8%
- Kd [2]: 39.2 µM
SMILES: O=C1c2ccccc2C(=O)c2c1cc(S(=O)(=O)O)c(O)c2O [Alizarin red S]
